Measurements from patent publication US9856290B2, “Glycopeptide compositions and uses thereof” (SUSSEX RESEARCH LABORATORIES INC., priority 2013, dated 2018).
Where a SMILES comes first, the peptide text is derived from it.

Experiments:
[1] = system: Human Dermal Fibroblasts (KMST-6); experiment: Cell morphology (phase contrast images); type: cell-based; settings: 5 μM
Method: KMST-6 cells (Japan Health Sciences Foundation, JCRB0433) were seeded at 7,000 cells/ml in 12-well tissue culture treated plates (Falcon, 353043) in complete media. The complete media consists of the following: MEM/EBSS (Hyclone, SH30024.01), 10% Heat-Inactivated FBS (Gibco, 10082-147), 1% L-Glutamine (Hyclone, SH30031.01), 1% Nucleosides (800 mg/L Adenosine, 850 mg/L Guanidine, 730 mg/L Cytidine, 730 mg/L Uridine and 240 mg/L Thymidine), 1% Penicillin/Streptomycin (HyClone, SV30010), 1% Sodium Pyruvate (HyClone, SH30239.01), 1% Non-Essential Amino Acids (Hyclone, SH30238.01) and 0.04% Gentamicin (Gibco, 15710-064). Cells were grown for 2 days prior to treatments. The media was aspirated and cells were washed with 1×PBS (Fisher, SH30256.01) and treated with 5 μM glycopeptides (GP001-1, GP002-3, GP002-7, GP003-9, GP004-3 and GP004-4), reference (Pal-KTTKS, CPC Scientific, 822197), and control (DMSO, Fisher, BP231-100) in serum-free media supplemented with 50 μg/mL Sodium Ascorbate (Sigma, A4034) and 80 μg/mL β-Aminopropionate Fumarate (Sigma, A3134). The treated cells were incubated at 37° C. and 5% CO2 for 48 and 72 hours. At each time point, images were taken with an Olympus Opti-Tech Scientific Microscope (Lumenera, Infinity 2 camera at 10× magnification) and changes in cell size and morphology were recorded. […]

[2] = system: Human Dermal Fibroblasts (KMST-6); experiment: Cell Viability MTT Assay; type: cell-based; settings: 5 μM, KMST-6, 48 and 72 hours; toxicity defined as viability less than 50% of control
Method: KMST-6 cells (Japan Health Sciences Foundation, JCRB0433) were seeded at 7,000 cells/ml in complete media. The complete media consists of the following: MEM/EBSS (Hyclone, SH30024.01), 10% Heat-Inactivated FBS (Gibco, 10082-147), 1% L-Glutamine (Hyclone, SH30031.01), 1% Nucleosides (800 mg/L Adenosine, 850 mg/L Guanidine, 730 mg/L Cytidine, 730 mg/L Uridine and 240 mg/L Thymidine), 1% Penicillin/Streptomycin (HyClone, SV30010), 1% Sodium Pyruvate (HyClone, SH30239.01), 1% Non-Essential Amino Acids (Hyclone, SH30238.01) and 0.04% Gentamicin (Gibco, 15710-064). Cells were grown for 2 days prior to treatments. […] The absorbance was measured with a microplate reader (Molecular Devices, SpectraMax M2e) at 570 nm. […]
To determine effects on cell viability as a measure of toxicity, 5 μM of the 6 exemplary glycopeptides were applied to Human Dermal Fibroblasts (KMST-6) as previously described. […] The absorbance was measured with a microplate reader (Molecular Devices, SpectraMax M2e) at 570 nm. Three or more independent experiments were performed and statistical significance was determined using One-way ANOVA (p<0.05). […]

fibroblast = settings: under certain conditions; cited from earlier work

Compound: CCCCCCCCCCCCCCCC(=O)N[C@@H](CCCCN)C(=O)N[C@H](C(=O)N[C@H](C(=O)N[C@@H](CCCCN)C(=O)N[C@@H](CO)C(=O)O)[C@@H](C)O)[C@@H](C)O [Reference, Pal-KTTKS] (HELM PEPTIDE1{[CCCCCCCCCCCCCCCC(=O)[*:2]].K.T.T.K.S}$$$$V2.0)
- cell confluence compared to control and glycopeptide treated cells ([1]; KMST-6): demonstrated decrease in cell confluence
- toxicity as observed through phase-contrast morphology ([1]; KMST-6, 48 and 72 hours): visibly interfered with cell viability
- cell viability as a measure of toxicity (MTT assay) [2]: significant decrease in cell viability
- fibroblast cell viability (fibroblast): decrease fibroblast cell viability
